In US8178668B2, “2-aminopyridine kinase inhibitors” (OSI Pharmaceuticals, LLC, priority 2008, dated 2012) one finds IC50 data, which are given here for 23 molecules.

The target in assay [1] is RON (human) (Homo sapiens, UniProt Q04912). In words: RON kinase AlphaScreen assay (Km of ATP). It is filed as biochemical. The following applies: ATP at Km; at least duplicate experiments. An outline of the steps:
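Human RON phosphorylated biotinylated poly(Glu,Tyr) (200 ng/μL) at Km ATP in 50 mM HEPES pH 7.4, 12.5 mM MgCl2, 1% glycerol, 0.334 mM vanadate, 1% DMSO. Reaction ran 30 min at RT after enzyme addition. Product was detected by AlphaScreen with PT66 beads after 1 h.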
On the technique in general: Alpha assays give light when donor and acceptor beads are brought close together.

Assay [2] deals with MET (human) (Homo sapiens, UniProt P08581). In words: MET kinase AlphaScreen assay (Km of ATP). The format is biochemical. The following applies: ATP at Km; at least duplicate experiments. Summed up:
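Biotinylated poly(Glu,Tyr) (200 ng/μL) phosphorylated by MET with ATP at an enzyme-optimized level, in 50 mM HEPES pH 7.4 with Mg2+/Mn2+ and vanadate, 1% DMSO. Reaction runs 60 min at RT. PT66 AlphaScreen donor/acceptor beads are added and signal is read after 1 h.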

Where a name gives a salt, the structure may show the parent alone.

RON (human), sequence (Q04912 25-1400): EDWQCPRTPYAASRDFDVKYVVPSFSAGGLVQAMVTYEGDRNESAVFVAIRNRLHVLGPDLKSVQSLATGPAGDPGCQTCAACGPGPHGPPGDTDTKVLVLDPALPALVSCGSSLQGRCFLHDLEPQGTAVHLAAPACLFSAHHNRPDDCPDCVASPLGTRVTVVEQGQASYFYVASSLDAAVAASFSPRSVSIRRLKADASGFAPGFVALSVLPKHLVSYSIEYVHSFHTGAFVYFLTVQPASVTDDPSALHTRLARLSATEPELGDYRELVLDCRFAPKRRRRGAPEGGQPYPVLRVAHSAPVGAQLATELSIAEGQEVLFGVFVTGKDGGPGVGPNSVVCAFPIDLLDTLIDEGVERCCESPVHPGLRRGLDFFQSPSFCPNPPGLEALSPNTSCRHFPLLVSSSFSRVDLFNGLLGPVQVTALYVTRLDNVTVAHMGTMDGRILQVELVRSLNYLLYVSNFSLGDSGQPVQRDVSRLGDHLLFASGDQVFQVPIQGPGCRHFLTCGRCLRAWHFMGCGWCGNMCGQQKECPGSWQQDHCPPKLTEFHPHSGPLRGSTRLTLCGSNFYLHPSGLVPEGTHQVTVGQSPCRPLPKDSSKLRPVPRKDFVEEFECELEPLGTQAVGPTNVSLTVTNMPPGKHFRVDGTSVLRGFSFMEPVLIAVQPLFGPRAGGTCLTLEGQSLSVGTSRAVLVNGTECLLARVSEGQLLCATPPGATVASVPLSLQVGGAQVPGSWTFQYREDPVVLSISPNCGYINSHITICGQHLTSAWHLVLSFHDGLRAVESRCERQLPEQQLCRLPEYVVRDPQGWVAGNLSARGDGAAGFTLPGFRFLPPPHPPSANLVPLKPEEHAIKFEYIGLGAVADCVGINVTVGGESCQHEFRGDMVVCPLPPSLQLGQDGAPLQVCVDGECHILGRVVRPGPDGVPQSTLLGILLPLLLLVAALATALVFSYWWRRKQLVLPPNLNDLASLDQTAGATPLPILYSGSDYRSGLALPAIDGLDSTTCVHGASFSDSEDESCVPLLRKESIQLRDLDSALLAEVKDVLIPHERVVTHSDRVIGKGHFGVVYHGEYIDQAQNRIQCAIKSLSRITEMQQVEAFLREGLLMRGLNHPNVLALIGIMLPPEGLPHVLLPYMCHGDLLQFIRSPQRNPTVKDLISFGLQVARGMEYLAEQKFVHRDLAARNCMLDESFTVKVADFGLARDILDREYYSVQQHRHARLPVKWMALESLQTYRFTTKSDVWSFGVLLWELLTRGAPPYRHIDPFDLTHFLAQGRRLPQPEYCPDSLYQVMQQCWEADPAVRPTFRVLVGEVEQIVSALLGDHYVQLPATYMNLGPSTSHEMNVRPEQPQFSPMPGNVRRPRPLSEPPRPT
MET (human), sequence (P08581 25-1390): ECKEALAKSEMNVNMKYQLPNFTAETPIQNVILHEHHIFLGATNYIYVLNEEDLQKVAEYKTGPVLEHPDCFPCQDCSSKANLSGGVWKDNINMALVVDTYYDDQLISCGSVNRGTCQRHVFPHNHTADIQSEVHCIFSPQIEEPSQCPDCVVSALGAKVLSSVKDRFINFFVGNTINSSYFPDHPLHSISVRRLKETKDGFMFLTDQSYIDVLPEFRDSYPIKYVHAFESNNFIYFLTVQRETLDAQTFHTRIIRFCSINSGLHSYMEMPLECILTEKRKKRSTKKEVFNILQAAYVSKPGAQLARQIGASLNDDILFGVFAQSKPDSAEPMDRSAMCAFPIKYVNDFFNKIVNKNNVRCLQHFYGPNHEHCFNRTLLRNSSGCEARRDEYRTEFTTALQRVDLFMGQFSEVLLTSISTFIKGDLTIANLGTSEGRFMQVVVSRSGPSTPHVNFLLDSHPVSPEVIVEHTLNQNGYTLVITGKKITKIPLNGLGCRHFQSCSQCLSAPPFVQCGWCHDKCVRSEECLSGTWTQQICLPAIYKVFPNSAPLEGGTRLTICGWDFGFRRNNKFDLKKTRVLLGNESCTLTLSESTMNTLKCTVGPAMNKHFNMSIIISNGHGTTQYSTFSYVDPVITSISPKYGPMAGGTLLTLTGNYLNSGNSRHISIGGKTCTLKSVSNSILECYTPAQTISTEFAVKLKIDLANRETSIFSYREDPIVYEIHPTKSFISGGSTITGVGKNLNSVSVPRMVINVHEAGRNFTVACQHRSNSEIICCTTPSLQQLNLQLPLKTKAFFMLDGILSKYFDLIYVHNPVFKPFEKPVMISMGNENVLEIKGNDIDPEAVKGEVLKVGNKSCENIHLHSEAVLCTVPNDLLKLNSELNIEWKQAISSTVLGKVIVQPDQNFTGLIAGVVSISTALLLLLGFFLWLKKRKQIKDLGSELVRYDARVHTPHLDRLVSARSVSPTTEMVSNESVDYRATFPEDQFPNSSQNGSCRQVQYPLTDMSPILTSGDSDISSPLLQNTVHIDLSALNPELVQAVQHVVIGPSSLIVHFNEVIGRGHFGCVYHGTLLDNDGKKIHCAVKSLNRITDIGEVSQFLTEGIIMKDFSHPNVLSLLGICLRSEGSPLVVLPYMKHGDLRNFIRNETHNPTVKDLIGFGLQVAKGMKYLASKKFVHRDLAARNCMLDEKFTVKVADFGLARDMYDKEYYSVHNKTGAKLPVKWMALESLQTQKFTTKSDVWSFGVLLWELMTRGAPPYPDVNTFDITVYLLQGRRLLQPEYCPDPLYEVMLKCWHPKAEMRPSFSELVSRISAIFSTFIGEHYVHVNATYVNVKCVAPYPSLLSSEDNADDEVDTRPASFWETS

`COc1ccc(Cl)c2cc(-c3cc(-c4cnn(C5CCNCC5)c4)cnc3N)ncc12` [Example 12, 4-{4-[6-Amino-5-(5-chloro-8-methoxyisoquinolin-3-yl)-pyridin-3-yl]-pyrazol-1-yl}-piperidine trihydrochloride]: the IC50 (usually the midpoint of a concentration-inhibition curve) was 1000 to 20000 nM in assay [1] and 100 to 1000 nM in assay [2].

As to `Nc1ncc(-c2cc3ccccc3[nH]2)cc1-c1nc2ccccc2s1` [Example 229, 3-(1,3-Benzothiazol-2-yl)-5-(1H-indol-2-yl)pyridin-2-amine], the IC50 in assay [1] and in assay [2] was 1000 to 20000 nM each time.

For `Nc1ncc(-c2ccc(NCCN3CCOCC3)nc2)cc1-c1cc2c(Cl)ccc(F)c2cn1` [Example 88, 3-(5-Chloro-8-fluoroisoquinolin-3-yl)-5-N6′-(2-morpholin-4-ylethyl)-3,3′-bipyridine-6,6′-diamine], the IC50 in assay [1] and in assay [2] was 1000 to 20000 nM in each case.

In the case of `Nc1ncc(-c2cnn(C3CCNCC3)c2)cc1-c1cc2cc(Br)ccc2cn1` [Example 23, 3-(6-Bromoisoquinolin-3-yl)-5-(1-piperidin-4-yl-1H-pyrazol-4-yl)-pyridin-2-ylamine trihydrochloride salt], the half-maximal inhibitory concentration (IC50) in assay [1] and in assay [2] was 100 to 1000 nM throughout.

With `Nc1ncc(-c2cnn([C@@H]3CN[C@H](C(=O)O)C3)c2)cc1-c1nc2ccccc2s1` [Example 154, (2S,4S)-4-[4-(6-Amino-5-benzothiazol-2-ylpyridin-3-yl)-pyrazol-1-yl]-pyrrolidine-2-carboxylic acid], the 50% inhibitory concentration (IC50) in assay [1] was 100 to 1000 nM; in assay [2], not above 100 nM.

As for `COc1ccc2sc(-c3cc(-c4cnn(C5CCNCC5)c4)cnc3N)nc2c1` [Example 271, 3-(5-Methoxybenzothiazol-2-yl)-5-(1-piperidin-4-yl-1H-pyrazol-4-yl)-pyridin-2-ylamine], the IC50 in assay [1] and in assay [2] was 100 to 1000 nM in each case.

As for `Nc1ncc(-c2cnn(CC(=O)N3CCCCC3)c2)cc1-c1nc2ccccc2s1` [Example 141, 2-[4-(6-Amino-5-benzothiazol-2-ylpyridin-3-yl)-pyrazol-1-yl]-1-piperidin-1-ylethanone], the IC50 in assay [1] and in assay [2] was 1000 to 20000 nM throughout.

As for `Nc1ncc(-c2cnn(C3CCNCC3)c2)cc1N1CCc2ccccc2C1` [Example 300, 3-(3,4-Dihydro-1H-isoquinolin-2-yl)-5-(1-piperidin-4-yl-1H-pyrazol-4-yl)-pyridin-2-ylamine], the IC50 was in the range of 1000 to 20000 nM in assay [1] and 100 to 1000 nM in assay [2].

Regarding `Nc1ncc(-c2cnn(C3CCN(CC(=O)N4CCCC4)CC3)c2)cc1-c1nc2ccccc2s1` [Example 166, 2-{4-[4-(6-Amino-5-benzothiazol-2-ylpyridin-3-yl)-pyrazol-1-yl]-piperidin-1-yl}-1-pyrrolidin-1-ylethanone], the IC50 is 100 to 1000 nM in assay [1] and not above 100 nM in assay [2].

On to `CCN(CC)C(=O)c1ccc(-c2cnc(N)c(-c3nc4ccccc4s3)c2)cc1` [Example 191, 4-(6-Amino-5-benzothiazol-2-ylpyridin-3-yl)-N,N-diethylbenzamide], for which the IC50 in assay [1] and in assay [2] was more than 20000 nM throughout.

For the molecule `Nc1ncc(-c2cnn([C@@H]3CN[C@H](C(=O)N4CCOCC4)C3)c2)cc1-c1cc2c(Cl)ccc(F)c2cn1` [Example 72, ((2S,4S)-4-{4-[6-Amino-5-(5-chloro-8-fluoroisoquinolin-3-yl)-pyridin-3-yl]-pyrazol-1-yl}-pyrrolidin-2-yl)-morpholin-4-ylmethanone], the IC50 in assay [1] was 100 to 1000 nM; in assay [2], not above 100 nM.

In the case of `Nc1ncc(-c2cnn([C@@H]3CN[C@@H](C(=O)O)C3)c2)cc1-c1nc2ccccc2s1` [Example 174, (2R,4S)-4-[4-(6-Amino-5-benzothiazol-2-ylpyridin-3-yl)-pyrazol-1-yl]-pyrrolidine-2-carboxylic acid], the IC50 in assay [1] is 1000 to 20000 nM; in assay [2], not above 100 nM.

As to `Nc1ncc(-c2cnn(C3CCN(CC(=O)N4CCOCC4)CC3)c2)cc1-c1nc2ccccc2s1` [Example 170, 2-{4-[4-(6-Amino-5-benzothiazol-2-ylpyridin-3-yl)-pyrazol-1-yl]-piperidin-1-yl}-1-morpholin-4-ylethanone], the concentration for half-maximal inhibition (IC50) in assay [1] was 100 to 1000 nM; in assay [2] it was not above 100 nM.

As for `Cn1cc(-c2cccc3nc(-c4cc(-c5cnn(C6CCNCC6)c5)cnc4N)sc23)cn1` [Example 248, 3-[7-(1-Methyl-1H-pyrazol-4-yl)benzothiazol-2-yl]-5-(1-piperidin-4-yl-1H-pyrazol-4-yl)pyridin-2-ylamine dihydrochloride], the IC50 in assay [1] and in assay [2] was 100 to 1000 nM in each case.

Regarding `Nc1ncc(-c2cnn(CCC(=O)N3CCC(O)C3)c2)cc1-c1nc2ccccc2s1` (stereo not shown) [Example 289, 3-[4-(6-Amino-5-benzothiazol-2-ylpyridin-3-yl)-pyrazol-1-yl]-1-(3-hydroxypyrrolidin-1-yl)-propan-1-one], the IC50 in assay [1] lay within 1000 to 20000 nM; in assay [2], 100 to 1000 nM.

Regarding `NC(=O)NCC#Cc1cnc(N)c(-c2nc3ccccc3s2)c1` [Example 129, [3-(6-Amino-5-benzothiazol-2-ylpyridin-3-yl)-prop-2-ynyl]-urea], the IC50 in assay [1] and in assay [2] was 1000 to 20000 nM in each case.

Regarding `Nc1ncc(-c2cnn(C3CCCCC3)c2)cc1-c1nc2ccccc2s1` [Example 113, 3-Benzothiazol-2-yl-5-(1-cyclohexyl-1H-pyrazol-4-yl)-pyridin-2-ylamine bis-hydrochloride], the IC50 lay in the range of 1000 to 20000 nM in assay [1] and 100 to 1000 nM in assay [2].

`CN(C)CCN(C)C(=O)c1cccc(-c2cnc(N)c(-c3nc4ccccc4s3)c2)c1` [Example 220, 3-(6-Amino-5-benzothiazol-2-ylpyridin-3-yl)-N-(2-dimethylaminoethyl)-N-methylbenzamide]: the IC50 in assay [1] was in the range of 1000 to 20000 nM; in assay [2], 100 to 1000 nM.

As to `Nc1ncc(-c2cnn(C3CCNCC3)c2)cc1-c1oc2ccccc2c1Cl` [Example 93, 3-(3-Chlorobenzofuran-2-yl)-5-(1-piperidin-4-yl-1H-pyrazol-4-yl)-pyridin-2-ylamine dihydrochloride], the IC50 in assay [1] and in assay [2] was 100 to 1000 nM throughout.

For the molecule `Nc1ncc(-c2cnn(C3CCN(CC(=O)N4CCC4)CC3)c2)cc1-c1nc2ccccc2s1` [Example 165, 2-{4-[4-(6-Amino-5-benzothiazol-2-ylpyridin-3-yl)-pyrazol-1-yl]-piperidin-1-yl}-1-azetidin-1-ylethanone], the IC50 in assay [1] and in assay [2] was 100 to 1000 nM in each case.

As for `Nc1ncc(-c2cnn(C3CCNCC3)c2)cc1-c1oc2ccccc2c1Br` [Example 95, 3-(3-Bromobenzofuran-2-yl)-5-(1-piperidin-4-yl-1H-pyrazol-4-yl)-pyridin-2-ylamine trifluoroacetate], the IC50 in assay [1] and in assay [2] was 1000 to 20000 nM throughout.

Consider `NC(=O)N1CCC(n2cc(-c3cnc(N)c(-c4nc5ccccc5s4)c3)cn2)CC1` [Example 116, 4-[4-(6-Amino-5-benzothiazol-2-yl-pyridin-3-yl)-pyrazol-1-yl]-piperidine-1-carboxamide bis-hydrochloride], for which the IC50 in assay [1] and in assay [2] was 100 to 1000 nM throughout.

For `Nc1ncc(-c2cnn([C@@H]3CN[C@H](C(=O)N4CCOCC4)C3)c2)cc1-c1nc2ccccc2s1` [Example 157, {(2S,4S)-4-[4-(6-Amino-5-benzothiazol-2-ylpyridin-3-yl)-pyrazol-1-yl]-pyrrolidin-2-yl}-morpholin-4-ylmethanone], the IC50 in assay [1] and in assay [2] was not above 100 nM each time.
